In ChEMBL document CHEMBL1201862, “PubChem BioAssay data set” (2004):
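Tested at 5 concentrations; 48 h exposure; 96-well plates; endpoints linearly interpolated, else capped at highest concentration. GI50 = concentration required for 50% inhibition of growth.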 Active and inactive are the calls of the source. No stated cut-off is given here; in the data, active = GI50 up to about 1.1 µM and inactive = higher.

Legend:
Assay in all cases: inhibition of tumour cell growth, NCI panel, 48 h
Hs-578T = tested on: Hs-578T
MOLT-4 = tested on: MOLT-4
TK-10 = tested on: TK-10
SF-295 = tested on: SF-295
CCRF-CEM = tested on: CCRF-CEM
SNB-75 = tested on: SNB-75
OVCAR-8 = tested on: OVCAR-8
IGROV-1 = tested on: IGROV-1
KM12 = tested on: KM12
ACHN = tested on: ACHN
HOP-62 = tested on: HOP-62
OVCAR-3 = tested on: OVCAR-3
A549 = tested on: A549
UACC-257 = tested on: UACC-257
SK-MEL-2 = tested on: SK-MEL-2
OVCAR-5 = tested on: OVCAR-5
MDA-N = tested on: MDA-N
HCT-15 = tested on: HCT-15
MCF7 = tested on: MCF7
Malme-3M = tested on: Malme-3M
RPMI-8226 = tested on: RPMI-8226
UO-31 = tested on: UO-31
HCT-116 = tested on: HCT-116
K562 = tested on: K562
MDA-MB-435 = tested on: MDA-MB-435
A498 = tested on: A498
SN12C = tested on: SN12C
U-251 = tested on: U-251
SW-620 = tested on: SW-620
SF-268 = tested on: SF-268
CAKI-1 = tested on: CAKI-1
NCI-H226 = tested on: NCI-H226
LOX IMVI = tested on: LOX IMVI
RXF 393 = tested on: RXF 393
HT-29 = tested on: HT-29
786-0 = tested on: 786-0
UACC-62 = tested on: UACC-62
T47D = tested on: T47D
SR = tested on: SR
HL-60 = tested on: HL-60
COLO 205 = tested on: COLO 205
SF-539 = tested on: SF-539
M14 = tested on: M14
HCC 2998 = tested on: HCC 2998
NCI-H460 = tested on: NCI-H460
HOP-92 = tested on: HOP-92
SK-MEL-28 = tested on: SK-MEL-28
NCI-H522 = tested on: NCI-H522
SK-OV-3 = tested on: SK-OV-3
NCI-H23 = tested on: NCI-H23
DU-145 = tested on: DU-145
SK-MEL-5 = tested on: SK-MEL-5
SNB-19 = tested on: SNB-19
BT-549 = tested on: BT-549
PC-3 = tested on: PC-3
EKVX = tested on: EKVX
MDA-MB-231 = tested on: MDA-MB-231
NCI/ADR-RES = tested on: NCI/ADR-RES
OVCAR-4 = tested on: OVCAR-4

With `CC1CN=C(Nc2ccccc2)S1` (stereo not given) the GI50 (Hs-578T) was > 100 µM (inactive), the GI50 (MOLT-4) was > 100 µM (inactive) and the GI50 (TK-10) was > 100 µM (inactive). For the same compound, the GI50 (SF-295) was > 100 µM (inactive), the GI50 (CCRF-CEM) was > 100 µM (inactive) and the GI50 (SNB-75) was > 100 µM (inactive). For the same compound, the GI50 (OVCAR-8) was > 100 µM (inactive), the GI50 (IGROV-1) was > 100 µM (inactive) and the GI50 (KM12) was > 100 µM (inactive). The GI50 (ACHN) was > 100 µM (inactive), the GI50 (HOP-62) was > 100 µM (inactive) and the GI50 (OVCAR-3) was > 100 µM (inactive). For the same compound, the GI50 (A549) was > 100 µM (inactive), the GI50 (UACC-257) was > 100 µM (inactive) and the GI50 (SK-MEL-2) was > 100 µM (inactive). For the same compound, the GI50 (OVCAR-5) was > 100 µM (inactive), the GI50 (MDA-N) was > 100 µM (inactive) and the GI50 (HCT-15) was over 100 µM. For the same compound, the GI50 (MCF7) was > 100 µM (inactive), the GI50 (Malme-3M) was > 100 µM (inactive) and the GI50 (RPMI-8226) was > 100 µM (inactive). The GI50 (UO-31) was 56.8 µM (inactive), the GI50 (HCT-116) was > 100 µM (inactive) and the GI50 (K562) was > 100 µM (inactive). For the same compound, the GI50 (MDA-MB-435) was > 100 µM (inactive), the GI50 (A498) was > 100 µM (inactive) and the GI50 (SN12C) was > 100 µM (inactive). For the same compound, the GI50 (U-251) was > 100 µM (inactive), the GI50 (SW-620) was > 100 µM (inactive) and the GI50 (SF-268) was > 100 µM (inactive). The GI50 (CAKI-1) was > 100 µM (inactive), the GI50 (NCI-H226) was > 100 µM (inactive) and the GI50 (LOX IMVI) was > 100 µM (inactive). For the same compound, the GI50 (RXF 393) was > 100 µM (inactive), the GI50 (HT-29) was > 100 µM (inactive) and the GI50 (786-0) was > 100 µM (inactive). The GI50 (UACC-62) was > 100 µM (inactive), the GI50 (T47D) was > 100 µM (inactive) and the GI50 (SR) was > 100 µM (inactive). The GI50 (HL-60) was > 100 µM (inactive), the GI50 (COLO 205) was > 100 µM (inactive) and the GI50 (SF-539) was > 100 µM (inactive). The GI50 (M14) was > 100 µM (inactive), the GI50 (HCC 2998) was > 100 µM (inactive) and the GI50 (NCI-H460) was > 100 µM (inactive). The GI50 (HOP-92) was > 100 µM (inactive), the GI50 (SK-MEL-28) was > 100 µM (inactive) and the GI50 (NCI-H522) was > 100 µM (inactive). The GI50 (SK-OV-3) was > 100 µM (inactive), the GI50 (NCI-H23) was > 100 µM (inactive) and the GI50 (DU-145) was > 100 µM (inactive). For the same compound, the GI50 (SK-MEL-5) was > 100 µM (inactive), the GI50 (SNB-19) was > 100 µM (inactive) and the GI50 (BT-549) was > 100 µM (inactive). For the same compound, the GI50 (PC-3) was > 100 µM (inactive), the GI50 (EKVX) was > 100 µM (inactive) and the GI50 (MDA-MB-231) was > 100 µM (inactive). The GI50 (NCI/ADR-RES) was > 100 µM (inactive).
With `Cc1cc(C)n(C2OC(CO)C(O)C(O)C2O)c(=S)c1C#N` (stereo not given) the GI50 (Hs-578T) was > 100 µM (inactive), the GI50 (MOLT-4) was > 100 µM (inactive) and the GI50 (TK-10) was > 100 µM (inactive). The GI50 (SF-295) was > 100 µM (inactive), the GI50 (CCRF-CEM) was > 100 µM (inactive) and the GI50 (SNB-75) was > 100 µM (inactive). For the same compound, the GI50 (OVCAR-8) was > 100 µM (inactive), the GI50 (IGROV-1) was > 100 µM (inactive) and the GI50 (KM12) was > 100 µM (inactive). The GI50 (ACHN) was > 100 µM (inactive), the GI50 (HOP-62) was > 100 µM (inactive) and the GI50 (OVCAR-3) was > 100 µM (inactive). The GI50 (A549) was > 100 µM (inactive), the GI50 (UACC-257) was > 100 µM (inactive) and the GI50 (SK-MEL-2) was > 100 µM (inactive). For the same compound, the GI50 (OVCAR-4) was > 100 µM (inactive), the GI50 (OVCAR-5) was > 100 µM (inactive) and the GI50 (MDA-N) was > 100 µM (inactive). The GI50 (HCT-15) was over 100 µM, the GI50 (MCF7) was > 100 µM (inactive) and the GI50 (Malme-3M) was > 100 µM (inactive). For the same compound, the GI50 (RPMI-8226) was > 100 µM (inactive), the GI50 (UO-31) was > 100 µM (inactive) and the GI50 (HCT-116) was > 100 µM (inactive). For the same compound, the GI50 (K562) was > 10 µM (inactive), the GI50 (MDA-MB-435) was > 100 µM (inactive) and the GI50 (A498) was > 100 µM (inactive). The GI50 (SN12C) was > 100 µM (inactive), the GI50 (U-251) was > 100 µM (inactive) and the GI50 (SW-620) was > 100 µM (inactive). For the same compound, the GI50 (SF-268) was > 100 µM (inactive), the GI50 (CAKI-1) was > 100 µM (inactive) and the GI50 (NCI-H226) was > 100 µM (inactive). For the same compound, the GI50 (LOX IMVI) was > 100 µM (inactive), the GI50 (RXF 393) was > 100 µM (inactive) and the GI50 (HT-29) was > 100 µM (inactive). The GI50 (786-0) was > 100 µM (inactive), the GI50 (UACC-62) was > 100 µM (inactive) and the GI50 (T47D) was > 100 µM (inactive). The GI50 (SR) was > 100 µM (inactive), the GI50 (HL-60) was > 100 µM (inactive) and the GI50 (COLO 205) was > 100 µM (inactive). The GI50 (SF-539) was > 100 µM (inactive), the GI50 (M14) was > 100 µM (inactive) and the GI50 (HCC 2998) was > 100 µM (inactive). The GI50 (NCI-H460) was > 100 µM (inactive), the GI50 (HOP-92) was > 100 µM (inactive) and the GI50 (SK-MEL-28) was > 100 µM (inactive). The GI50 (NCI-H522) was > 100 µM (inactive), the GI50 (NCI-H23) was > 100 µM (inactive) and the GI50 (DU-145) was > 100 µM (inactive). For the same compound, the GI50 (SK-MEL-5) was > 100 µM (inactive), the GI50 (SNB-19) was > 100 µM (inactive) and the GI50 (BT-549) was > 100 µM (inactive). The GI50 (PC-3) was > 100 µM (inactive), the GI50 (MDA-MB-231) was > 100 µM (inactive) and the GI50 (NCI/ADR-RES) was > 100 µM (inactive).
